Assay results: patent US10227362B2 (priority 2015, dated 2019)
≈ marks a conversion by molar mass, not a printed value.

Experiments:
[1] = system: Mycobacterium bovis BCG strain TMC1019 (ATCC35737); assay: microbe, parasite or virus in culture; type: cell-based; details: Mycobacterium tuberculosis variant bovis BCG, 24 h, read-out: M. bovis ATCC35737 (ug/mL)
Vero Cell = assay: Vero cell cytotoxicity; type: cell-based; details: Chlorocebus sabaeus, Vero cells
P-glycoprotein (MDR1) = assay: MDR1-MDCK cell bi-directional permeability; type: in vitro ADME; details: dog; for Papp A→B at 2.5 h, 2 μM: A to B, HBSS pH 7.4, read-out: MDR1-MDCK Monolayer Cell Bi-directional Permeability Parameters A to B; for Papp B→A at 2.5 h, 2 μM: B to A, HBSS pH 7.4, read-out: MDR1-MDCK Monolayer Cell Bi-directional Permeability Parameters B to A; for efflux ratio at 2.5 h, 2 μM: HBSS pH 7.4, read-out: MDR1-MDCK Monolayer Cell Bi-directional Permeability Parameters Efflux Ratio
Text: 2. MDR1-MDCK cell bi-directional permeability evaluation experiment: MDR1-MDCK cells that permanently express human P-glycoprotein (P-glycoprotein) were planted on 96-well Insert cell plates and cultured for 4 to 7 days to form aggregated monolayer cells. The assessment of unidirectional (A→B) permeability of the fenoterol (low permeability marker) and propranolol (high permeability marker) and the bi-directional permeability of Digoxin (a P-glycoprotein substrate) were used to verify the quality of monolayer cells. The three control compounds do two complex wells.
The standard conditions for the transport experiments of the test compound were as follows: • Test concentration: 2 μM (DMSO≤1%); • Repetition: n=3; • Direction: bidirectional transport consisting of two directions: A→B and B→A; • Incubation time: single time point, 2.5 hours; • Transport buffer: HB SS, pH 7.4; • Incubation conditions: 37° C., 5% CO2, 95% relative humidity.
After the incubation, the sample solutions taken from the donor wells and the receive wells were immediately mixed with a cold acetonitrile solution containing the internal standard. And the amount of accumulation of intracellular compounds was measured by lysing the cells with a cold acetonitrile solution containing the internal standard. The concentrations of the test compound in all samples (including the initial administration solution, the supernatant of donor wells, the receiver solution, the cell lysate) were analyzed by the LC/MS/MS method. The concentration of the test compound was expressed by the ratio of its peak area to the internal standard peak area.

Kinetic solubility test = type: physicochemical; details: buffer, 22 °C, aqueous buffer, kinetic from dmso stock, pH 2.0, room temperature
Experimental: 1. […] The test compound and the control compound (10 mM DMSO mother liquor, 10 uL per well) were added to a 96-well plate containing 490 uL of buffer per well. After vortexing for 2 minutes, the plates were incubated on the shaker at room temperature (22±2° C.) for 24 hours. The 200 uL sample was then transferred to a MultiScreen filter plate (polycarbonate film), filtered through a millipore vacuum manifold, and the filtrate was collected. The concentration of the compound in the filtrate was determined by HPLC-UV. Three different concentrations of UV standard solution and solubility test samples were injected successively. Each sample was injected 2 times, and the concentration was taken into the standard curve, and the average value was calculated.

[2] = system: Mycobacterium tuberculosis H37Rv strain; assay: In vitro MIC against M. tuberculosis H37Rv strain (MABA, Alamar Blue); type: cell-based
Experimental: Part I: The in vitro efficacy of anti-Mycobacterium tuberculosis compounds was tested using H37Rv strain.
On the day of the test, the compound was dissolved in pure DMSO (Sigma 276855-2L) to a concentration of 10 mg/mL which was used as the mother liquor of the compound. 30 μL of DMSO was added to wells of column 2 to 11 s of the v-bottom 96-well plates (Axygen-wipp02280). 30 μL of the mother liquor of the compound was added to the well of column 2, after mixing, 30 μL was taken from the well of column 2 and added to the well of column 3, and then pipetted and mixed. The operation was taken to column 10. Column 11 was free of medicine and contained only 30 μL of DMSO. This was the “motherplate” of the compound. From column 2 to 11, the corresponding concentration of the compound was 5, 2.5, 1.25, 0.625, 0.3125, 0.156, 0.078, 0.039, 0.02, 0 mg/mL. […] A flat bottom 96-well plate (Greiner 655090) was used as a “daughterplate”. 98 μL of 7H9 (Sigma M0178) medium was added to the wells of all daughterplates. 2 μL of compound was extracted from the motherboard and added to the corresponding daughter plate. Line A and H, column 1 and 12 of the daughterplate contained only 7H9 medium.
The H37Rv strain in the glycerol cryovial was inoculated into 7H9 medium containing 0.05% Tween 80 and cultured for 4 weeks at 37° C. in a shaker with 200 rpm. The bacterial liquid was washed twice with 7H9 medium containing 0.05% Tween 80 and resuspended in the same medium. The absorbance of the bacteria liquid was adjusted to OD550=0.4-0.5 using the same medium. The bacteria liquid was sub-packed in microcentrifuge tubes and stored at −80° C. Storage time was no more than 1 month. On the day of the test, the packaged bacteria liquid would be […]. The bacteria liquid was diluted 20 times and then diluted 50 times with 7H9 medium, and a total of 1000 times dilution. The bacteria liquid would be used to inoculate on the daughterplate. 100 μL of bacterial liquid was inoculated in each well of the daughterboard, 100 μL 7H9 medium was added to column 12 and without bacteria liquid.
The test daughterplate was placed in an incubator at 37° C. and the humidity was maintained at >80%. A week later, 12.5 μL of 7H9 medium containing 20% Tween 80 and 20 μL of Alamar Blue (Invitrogen DAL1100) were added to the well of a column 1 containing bacteria and the well of a column 12 without bacteria every day, and then continue to incubate for 24 hours and observed. When the added Alamar Blue was reduced to pink in 24 hours by the bacteria liquid in the well of column 1, the 7H9 medium containing 20% Tween 80 and Alamar Blue were added to all wells on the test plate and the fluorescence values were measured after incubation for 24 hours at 37° C.

M. tuberculosis H37R = assay: M. tuberculosis LORA MIC; type: cell-based; details: Mycobacterium tuberculosis, read-out: M. tuberculosis H37R LORA (MIC) (ug/mL)
[3] = Pharmacokinetics in vivo in mice; details: CD-1 male mice; for Pulmonary Drug Concentration (nM/Kg) PO 1 (h): lung, 1 h after administration; for Cmax: mouse, plasma
Experimental: The pharmacokinetic characteristics of rodents after intravenous and oral administration of the compound were tested in a standard protocol. Specifically, the candidate compounds of the experiment were injected intravenously and administered orally for 7 to 10 weeks old CD-1 male mice. The oral preparation was a 0.5% suspension of methylcellulose, and the intravenous preparation was a clear solution of ethanol/DMSO/polyethylene glycol 400/pure water (10:10:50:30). Plasma and lung samples were collected and analyzed by the LC-MS/MS method and the pharmacokinetic parameters were calculated.

| SMILES | MIC [1] [µg/mL] | IC50 (Vero Cell) [µg/mL] | Papp A→B at 2.5 h, 2 μM (P-glycoprotein (MDR1)) [×10⁻⁶ cm/s] | Papp B→A at 2.5 h, 2 μM (P-glycoprotein (MDR1)) [×10⁻⁶ cm/s] | efflux ratio at 2.5 h, 2 μM (P-glycoprotein (MDR1)) | solubility kinetic at 24 h (Kinetic solubility test) [µM] | MIC [2] [µg/mL] | MIC (M. tuberculosis H37R) [µg/mL] | Pulmonary Drug Concentration (nM/Kg) PO 1 (h) [3] [nM/kg] | drug concentration in lung relative to the reference compound (OPC-67683) ([3]; oral, 1 hour after administration) | Cmax ([3]; oral) [nM] |
| --- | --- | --- | --- | --- | --- | --- | --- | --- | --- | --- | --- |
| C[C@]1(CN2Cc3nc(-c4ccc(F)cc4)oc3C2)Cn2cc([N+](=O)[O-])nc2O1 [Compound 89, (S)-2-(4-Fluorophenyl)-5-((2-methyl-6-nitro-2,3-dihydroimidazo[2,1-b]oxazol-2-yl)methyl)-5,6-dihydro-4H-pyrrolo[3,4-d]oxazole] | < 1 | > 32 | 25.9 | 18.5 | 0.71 | 100 (≈ 38.7 µg/mL) | < 1 |  |  |  |  |
| C[C@]1(CN2CCc3nc(-c4ccc(F)cc4)ccc3C2)Cn2cc([N+](=O)[O-])nc2O1 [Compound 7, (S)-2-((2-(4-Fluorophenyl)-7,8-dihydro-1,6-naphthyridin-6(5H)-yl)methyl)-2-methyl-6-nitro-2,3-dihydroimidazo[2,1-b]oxazole] | < 1 | > 32 | 17.7 | 19.3 | 1.09 | 143 (≈ 58.7 µg/mL) | < 1 | 1 to 32 (≈ 2.44 to 78.2 µM) | 16147 | more than 9 times | 6720 |
| CC1(CN2CCc3nc(-c4ccccc4)ccc3C2)Cn2cc([N+](=O)[O-])nc2O1 (single isomer, unassigned) [Compound 1B, 2-methyl-6-nitro-2-((2-phenyl-7,8-dihydro-1,6-naphthyridin-6(5H)-yl)methyl)-2,3-dihydroimidazo[2,1-b]oxazole] | < 1 | > 32 | 16.8 | 22.7 | 1.35 | 130 (≈ 50.7 µg/mL) | < 1 | 1 to 32 (≈ 2.55 to 81.8 µM) |  |  |  |
| C[C@]1(CN2Cc3nc(-c4ccc(F)cc4)sc3C2)Cn2cc([N+](=O)[O-])nc2O1 [Compound 69, (S)-2-((2-(4-Fluorophenyl)-4H-pyrrolo[3,4-d]thiazol-5(6H)-yl)methyl)-2-methyl-6-nitro-2,3-dihydroimidazo[2,1-b]oxazole] | < 1 | > 32 | 20.9 | 15.8 | 0.76 | 39.3 (≈ 15.8 µg/mL) | < 1 | 1 to 32 (≈ 2.49 to 79.7 µM) |  |  |  |
| C[C@]1(CN2CCc3nc(-c4ccc(F)cc4F)ccc3C2)Cn2cc([N+](=O)[O-])nc2O1 [Compound 13, (S)-2-((2-(2,4-Difluorophenyl)-7,8-dihydro-1,6-naphthyridin-6(5H)-yl)methyl)-2-methyl-6-nitro-2,3-dihydroimidazo[2,1-b]oxazole] | < 1 | > 32 |  |  |  |  | < 1 | 1 to 32 (≈ 2.34 to 74.9 µM) |  |  |  |
| C[C@]1(CN2CCc3nc(-c4cc(F)cc(F)c4)ccc3C2)Cn2cc([N+](=O)[O-])nc2O1 [Compound 14, (S)-2-((2-(3,5-Difluorophenyl)-7,8-dihydro-1,6-naphthyridin-6(5H)-yl)methyl)-2-methyl-6-nitro-2,3-dihydroimidazo[2,1-b]oxazole] | < 1 | > 32 |  |  |  |  | < 1 | 1 to 32 (≈ 2.34 to 74.9 µM) |  |  |  |
| C[C@]1(CN2CCc3nc(-c4ccccc4F)ccc3C2)Cn2cc([N+](=O)[O-])nc2O1 [Compound 5, (S)-2-((2-(2-Fluorophenyl)-7,8-dihydro-1,6-naphthyridin-6(5H)-yl)methyl)-2-methyl-6-nitro-2,3-dihydroimidazo[2,1-b]oxazole] | < 1 | > 32 |  |  |  |  | < 1 | 1 to 32 (≈ 2.44 to 78.2 µM) |  |  |  |
| C[C@]1(CN2CCc3nc(-c4cccc(F)c4)ccc3C2)Cn2cc([N+](=O)[O-])nc2O1 [Compound 6, (S)-2-((2-(3-Fluorophenyl)-7,8-dihydro-1,6-naphthyridin-6(5H)-yl)methyl)-2-methyl-6-nitro-2,3-dihydroimidazo[2,1-b]oxazole] | < 1 | > 32 |  |  |  |  | < 1 | 1 to 32 (≈ 2.44 to 78.2 µM) |  |  |  |
| C[C@]1(COc2ccc(N3CCC(Oc4ccc(OC(F)(F)F)cc4)CC3)cc2)Cn2cc([N+](=O)[O-])nc2O1 [OPC-67683, delamanid, reference compound] |  |  | 0.09 | 0.17 |  |  |  |  | 1677 |  | 4740 |
| C[C@]1(CN2CCc3nc(-c4ccc(F)c(F)c4)ccc3C2)Cn2cc([N+](=O)[O-])nc2O1 [Compound 12, (S)-2-((2-(3,4-Difluorophenyl)-7,8-dihydro-1,6-naphthyridin-6(5H)-yl)methyl)-2-methyl-6-nitro-2,3-dihydroimidazo[2,1-b]oxazole] | < 1 | > 32 |  |  |  |  | < 1 | 1 to 32 (≈ 2.34 to 74.9 µM) |  |  |  |
